Read-outs that look alike come from different tables or passages of the source.
Molecular target: T1, rabbit lens aldose reductase (Oryctolagus cuniculus, UniProt P15122)
T1 construct: aldose reductase prepared from rabbit lens; from tissue; host or cells: rabbit lens
Test: Inhibitory effect on rabbit lens aldose reductase
Type: biochemical

[1] = aldose reductase prepared from rabbit lens, graphically calculated from inhibitory effect at various concentrations, read-out: 50% Inhibitory concentration (IC50)

Row | SMILES | IC50 [1] [nM] | IC50 [nM]
1 | O=C(O)Cn1c(=O)sc2cc(Oc3ccccc3)c(Cl)cc21 [Test Compound 1, 2-Oxo-5-chloro-6-phenoxy-3-benzothiazolineacetic acid] | 50 | –
2 | O=C(O)Cn1c(=O)sc2cc(Oc3ccccc3)ccc21 [Test Compound 3, 2-Oxo-6-phenoxy-3-benzothiazolineacetic acid] | 690 | –
3 | O=C(O)Cn1c(=O)sc2c(Cl)c(-c3ccccc3)ccc21 [Test Compound 5, 2-Oxo-6-phenyl-7-chloro-3-benzothiazolineacetic acid] | 120 | –
4 | O=C(O)Cn1c(=O)sc2cc(C3CCCCC3)c(Cl)cc21 [Test Compound 6, 2-Oxo-5-chloro-6-cyclohexyl-3-benzothiazolineacetic acid] | 140 | –
5 | O=C(O)Cn1c(=O)sc2cc(Br)c(Cl)cc21 [Test Compound 8, 2-Oxo-5-chloro-6-bromo-3-benzothiazolineacetic acid] | 50 | –
6 | O=C(O)Cn1c(=O)sc2ccc(Cl)cc21 [Test Compound 10, 2-Oxo-5-chloro-3-benzothiazolineacetic acid] | 200 | –
7 | O=C(O)CN1C(=O)C(=O)c2ccc(Cl)cc21 [Test Compound 13, 2,3-dioxo-6-chloro-1-indolineacetic acid] | 300 | –
8 | O=C(O)Cn1c(=O)sc2cc(Cl)c(Cl)cc21 [Test Compound 15, 2-Oxo-5,6-dichloro-3-benzothiazolineacetic acid] | 38 | –
9 | O=C(O)Cn1c(=O)sc2cc(-c3ccccc3)c(Cl)cc21 [compound 2] | 29 | –
10 | O=C(O)Cn1c(=O)sc2cc(Oc3ccccc3Cl)ccc21 [compound 4] | 270 | –
11 | O=C(O)Cn1c(=O)oc2cc(-c3ccccc3)c(Cl)cc21 [compound 7] | 49 | –
12 | O=C(O)CN1C(=O)Cc2ccc(Cl)cc21 [compound 9] | 270 | –
13 | O=C(O)Cn1c(=O)oc2ccc(Cl)cc21 [compound 11] | 250 | –
14 | O=C(O)Cn1c(=O)sc2cc(Cl)ccc21 [compound 12] | – | 410
15 | Cc1cc2c(cc1-c1ccccc1)sc(=O)n2CC(=O)O [compound 14] | 33 | –
16 | O=C(O)Cn1c(=O)sc2cc([N+](=O)[O-])c(Cl)cc21 [compound 16] | 120 | –
17 | Nc1cc2sc(=O)n(CC(=O)O)c2cc1Cl [compound 17] | 100 | –

— US4370340A, “Benzothiazol-2-one-3-alkanoic acids and esters and aldose reductase inhibiting compositions thereof” (Fujisawa Pharmaceutical Co., Ltd., priority 1979, dated 1983)
